# Laboratory results from US20100272831A1, “PROCESS FOR MANUFACTURING NANOCOMPOSITE MATERIALS FOR MULTISECTORAL APPLICATIONS” (NANOBIOMATTERS, S.L., priority 2005, published 2010).
# Assay: Interlayer (basal) spacing of montmorillonite clay treated with expansive-type precursors/modifiers
# Format: physicochemical
# Conditions: not given
row,Molecule,dMODIFIER [nm]
1,OCCO [Ethylene glycol],0.95

# Same assay, conditions: montmorillonite; spacing of the clay with the named modifier
row,Molecule,dMODIFIER [nm]
1,"CC(O)CO (stereo not drawn) [1,2-Propanediol]",1.09
2,"OCCCO [1,3-Propanediol]",0.98
3,OC[C@@H](O)[C@@H](O)[C@@H](O)CO [Adonitol],1.04
4,OCCOCCO [Diethylene glycol],1.04
5,OCC(O)CO [Glycerol],1.02
6,O=C(O)CO [Glycolic acid],1.06
7,CC(O)CO (stereo not drawn) [Propylene glycol],1.01
8,OC[C@@H](O)[C@H]1OC[C@H](O)[C@H]1O [Sorbitan],1.09
9,OC[C@@H](O)[C@@H](O)[C@H](O)[C@@H](O)CO [Sorbitol],1.19
10,OCCOCCOCCO [Triethylene glycol],1.08
11,C=CN1CCCC1=O [Vinyl pyrrolidone],1.23
12,Calcium butyrate,0.92
13,Manganese butyrate,0.95
14,Sucrose acetoisobutyrate,1.08
15,Vinyl versatate,1.11

# Assay: Interlayer (basal) spacing of kaolinite clay treated with expansive-type precursors/modifiers
# Format: physicochemical
# Conditions: not given
# Description: The penetration of the precursors is accelerated by means of the use of temperature, a turbulent regime homogenizer, ultrasound, pressure or a combination thereof. They can be dried by evaporation in a stove, lyophilization, centrifugation processes and/or gravimetric processes in solution or turbo-drying processes or by atomization processes.
# In this example the modification process consists of a first step in which the purified kaolinite and montmorillonite clay fining agents are pretreated with an ethanol/water 50/50 (v/v) mixture at 50° C. This process was carried out together with an ultrasonic stirring treatment process for 1 hour and with stirring with a homogenizer for 2 hours to favor the intercalation of the precursor in the clay. The solvent was then removed by means of lyophilization and/or evaporation. […]
row,Molecule,dMODIFIER [nm]
1,CC(=O)[O-].[K+] [Potassium acetate],1.39
2,FC(F)=C(F)F [Tetrafluoroethylene],0.98

# Same assay, conditions: kaolinite of Table 1; spacing of the clay with the named modifier
row,dMODIFIER [nm],Molecule
1,1.09,CC(N)=O [Acetamide]
2,1.03,O=C(O)CCCCC(=O)O [Adipic acid]
3,1.01,CCCC(=O)O [Butyric acid]
4,1.18,O=C1CCCCCN1 [Caprolactam]
5,1.11,"C[S+](C)[O-] [Dimethyl sulfoxide (DMSO), Dimethyl sulfoxide]"
6,1.02,C1CCCCC1 [Hexamethylene]
7,1.08,CC(O)C(=O)O (stereo not drawn) [Lactic acid]
8,1.20,O=C(O)/C=C\C(=O)O [Maleic acid]
9,1.20,O=C1C=CC(=O)O1 [Maleic anhydride]
10,1.07,O=C(O)c1ccccc1O [Salicylic acid]
11,1.09,O=C(OC[C@H]1O[C@@H](OC(=O)c2cc(O)c(O)c(OC(=O)c3cc(O)c(O)c(O)c3)c2)[C@H](OC(=O)c2cc(O)c(O)c(OC(=O)c3cc(O)c(O)c(O)c3)c2)[C@@H](OC(=O)c2cc(O)c(O)c(OC(=O)c3cc(O)c(O)c(O)c3)c2)[C@@H]1OC(=O)c1cc(O)c(O)c(OC(=O)c2cc(O)c(O)c(O)c2)c1)c1cc(O)c(O)c(OC(=O)c2cc(O)c(O)c(O)c2)c1 [Tannic acid]

row,Molecule,dMODIFIER [nm]
1,CC=O [Acetaldehyde],0.91
2,CC(=O)O [Acetic acid],1.10
3,NN [Anhydrous hydrazine],0.96
4,C=CC(N)=O [Archylamide],1.14
5,CCCCCC(=O)O [Hexanoic acid],1.23
6,NN.O [Hydrated hydrazine],1.03
7,"CNC=O [N-methyl formamide (NMF), N-methyl formamide]",1.02
8,C=COC(C)=O [Vinyl acetate],1.21
9,O [Water],0.78
10,Manganese acetate,1.41
